For two molecules, IC50, fu and fraction unbound results are on record in patent US20140213575A1, “6H-Thieno[3,2-f][1,2,4]triazolo[4,3-a][1,4]diazepines” (BAYER INTELLECTUAL PROPERTY GMBH, priority 2011, published 2014).

For one data set, the target named is T1, BRD4(1) (Homo sapiens, UniProt O60885).
T1 construct: BRD4(1) (amino acids 44-168); made in house; host or cells: E. coli
The experiment in a line: Binding assay BRD4/acetylated peptide H4 (TR-FRET/HTRF protein-protein interaction assay). The note with it: inhibition of interaction BRD4(1) / acetylated histone H4 peptide, TR-FRET. An excerpt:
Binding Assay BRD4/Acetylated Peptide H4 (“PRQ”)
To assess the BRD4 binding strength of the substances described in this application, their capacity for dose-dependent inhibition of the interaction between BRD4 and acetylated histone H4 was quantified.
For this purpose, a time-resolved fluorescence resonance energy transfer (TR-FRET) assay was used, which measures the binding between N-terminally His6-tagged BRD4(1) (amino acids 44-168) and a synthetic acetylated histone H4 (Ac-H4) peptide with the sequence GRGK(Ac)GGK(Ac)GLGK(Ac)GGAK(Ac)RHGSGSK-biotin. The recombinant BRD4 protein (produced in-house) was expressed in E. coli and was purified by (Ni-NTA) affinity chromatography and (Sephadex G-75) size-exclusion chromatography. The Ac-H4 peptide can be purchased for example from Biosyntan (Berlin, Germany).
In the assay, typically 11 different concentrations of each substance (0.1 nM, 0.33 nM, 1.1 nM, 3.8 nM, 13 nM, 44 nM, 0.15 μM, 0.51 μM, 1.7 μM, 5.9 μM and 20 μM) were measured as duplicates on the same microtitre plate. For this, 100-fold concentrated solutions in DMSO were prepared by serial dilutions (1:3.4) of a 2 mM stock solution in a clear, 384-well microtitre plate (Greiner Bio-One, Frickenhausen, Germany). From this, 50 nl was transferred to a black assay plate (Greiner Bio-One, Frickenhausen, Germany). The assay was started by supplying 2 μl of a 2.5-fold concentrated BRD4 solution (usually 10 to 50 nM final concentration in the 5 μl of the reaction volume) in aqueous assay buffer [50 mM HEPES pH 7.5, 50 mM sodium chloride (NaCl), 0.25 mM CHAPS and 0.05% serum albumin (BSA)] to the substances in the assay plate. This was followed by a 10-minute incubation step at 22° C. for the pre-equilibration of putative complexes between BRD4 and the substances.
The mixture was then incubated in the dark for one hour at 22° C. and then overnight at 4° C. The formation of BRD4/Ac-H4 complexes was determined by measuring the resonance energy transfer from the streptavidin-Eu-cryptate to the anti-6His-XL665 antibody that is present in the reaction. For this, the fluorescence emissions at 620 nm and 665 nm were measured after excitation at 330-350 nm in a TR-FRET measuring instrument, e.g. a Rubystar or Pherastar (both from BMG Lab Technologies, Offenburg, Germany) or a Viewlux (Perkin-Elmer). The ratio of the emissions at 665 nm and at […] was taken as an indicator of the amount of BRD4/Ac-H4 complexes formed.
The data obtained (ratio) were normalized, wherein 0% inhibition corresponded to the mean value from the measured values of a set of controls (usually 32 data points), in which all reagents were contained. 50 nl DMSO (100%) was used instead of test substances. Inhibition of 100% corresponded to the mean value from the measured values of a set of controls (usually 32 data points), in which all reagents except BRD4 were contained. The IC50 value was determined by regression analysis based on a 4-parameter equation (minimum, maximum, IC50, Hill; Y=Max+(Min−Max)/(1+(X/IC50)^Hill)) using Bayer's own analysis software.
Background: In TR-FRET formats the signal depends on donor and acceptor labels being close together.

For the next data set, the system named is MDA-MB-231 cells. Briefly: Cellular proliferation assay (alamarBlue) MDA-MB-231. The note with it: Homo sapiens, 96 hours, read-out: Breast MDA-MB-231 IC50. The format is cell-based. As to the method:
(§1) In accordance with the invention, the ability of the substances to inhibit the proliferation of various cell lines was determined. Cell viability was determined by means of the alamarBlue® reagent (Invitrogen). […] After incubation overnight at 37° C., the fluorescence values were determined (CI values). […] Then the fluorescence values were determined (CO values).
(§2) The substances were investigated in the cell lines in Table 1, which for example represent the stated indications: […]
Background: Resazurin is reduced to fluorescent resorufin, in cell work by metabolically active cells.

The subject of a further data set is plasma proteins. Briefly: Plasma protein binding by equilibrium dialysis. The following applies: for fu: free fraction of the species investigated (mouse), as used in Table 6; for fraction unbound: mouse, plasma, free (unbound) fraction, equilibrium dialysis, read-out: Protein binding, given as % fu. The format is in vitro ADME, mouse. As to the method: The binding of test substances to plasma proteins is determined by equilibrium dialysis by means of the Ht-dialysis apparatus (96-well) made of Teflon and a semipermeable membrane (regenerated cellulose, MWCO 12-14K). This separates 150 μl of each of a plasma side and a buffer side (50 mM phosphate buffer). The test substance is added in 2 concentrations (usually 3 and 0.3 μM) to the plasma side and binds to plasma proteins. The unbound fraction of the test substance passes through the membrane and is distributed on either side until equilibrium is established (after approx. 6-8 h at 37° C.). The substance concentration on the buffer side and the plasma side is determined by LC-MS analysis. For this, both sides are brought by dilution with buffer or plasma to the same matrix (10% plasma) and then precipitated with methanol. The free (unbound) fraction (fu) is calculated from the quotient of the buffer and plasma concentration. Stability tests and recovery tests are run concurrently as controls. In addition, the substance in buffer is dialysed against buffer, to check the nonspecific binding to apparatus and membrane and establishment of equilibrium. Because during incubation the osmotic pressure of the plasma proteins leads to dilution of the plasma (volume shift), this possible error is determined by weighing blank plasma samples and is included in the calculation of fu. Establishment of equilibrium and plasma stability should have a value not lower than 80% and the recovery should be at least 30%. A free fraction of <1% is regarded as high, between 1 and 10% as moderate and >10% as low plasma protein binding.

For another data set, the system named is MOLP-8 cells. The experiment in a line: Cellular proliferation assay (alamarBlue) MOLP-8. The format is cell-based. The note with it: Homo sapiens, 120 hours, read-out: Multiple myeloma MOLP-8 IC50. As to the method:
as §1, §2

The subject of the next data set is LNCaP cells. The experiment in a line: Cellular proliferation assay (alamarBlue) LNCaP. The note with it: Homo sapiens, 168 hours, read-out: Prostate LNCaP IC50. The format is cell-based. As to the method:
as §1, §2

What is called IC50 is the concentration at which inhibition is half-maximal. Take `Cc1sc2c(c1C)C(c1ccc(Cl)cc1)=N[C@@H](CC(=O)N1CC3(COC3)C1)c1nnc(C)n1-2` [Example 2, 2-[(S)-4-(4-Chlorophenyl)-2,3,9-trimethyl-6H-thieno[3,2-f][1,2,4]triazolo[4,3-a][1,4]diazepin-6-yl]-1-(2-oxa-6-azaspiro[3.3]hept-6-yl)ethan-1-one]: the half-maximal inhibitory concentration (IC50) at BRD4(1) was determined as 27 nM; in the data set on MDA-MB-231 cells it was 117 nM; in the data set with MOLP-8 cells it was 64 nM; in the data set with LNCaP cells, 80 nM. The molecule further displayed a fu with plasma proteins of 25%. Besides, the fraction unbound with plasma proteins worked out at 0.25.

Turning to `Cc1sc2c(c1C)C(c1ccc(Cl)cc1)=N[C@@H](CC(=O)N1C3CCC1CC(=O)C3)c1nnc(C)n1-2` [Example 1, 8-{2-[(S)-4-(4-Chlorophenyl)-2,3,9-trimethyl-6H-thieno[3,2-f][1,2,4]triazolo[4,3-a][1,4]diazepin-6-yl]acetyl}-8-azabicyclo[3.2.1]octan-3-one], the IC50 at BRD4(1) came to 28 nM; in the data set on MDA-MB-231 cells it was 110 nM; in the data set on MOLP-8 cells, 70 nM; with LNCaP cells, 90 nM. This molecule showed a fu with plasma proteins of 12%. In the data set with plasma proteins, the fraction unbound stood at 0.12.
